Measurements as given in patent publication US11724998B2, “PXR agonists and uses thereof for gut barrier dysfunction treatment and prevention” (Albert Einstein College of Medicine, priority 2017, dated 2023).
Values joined by “and” are separate entries in the source; they are usually repeats but may differ in a detail not shown here. Identical values can stand only once. Like-named read-outs stand apart in the source and are kept apart here.

Key:
PXR [1] = biological target: T1, PXR (Homo sapiens, UniProt O75469); assay: PXR activation, HepG2 reporter assay; assay type: cell-based; design: host or cells: HepG2
T1 sequence (O75469 1-434): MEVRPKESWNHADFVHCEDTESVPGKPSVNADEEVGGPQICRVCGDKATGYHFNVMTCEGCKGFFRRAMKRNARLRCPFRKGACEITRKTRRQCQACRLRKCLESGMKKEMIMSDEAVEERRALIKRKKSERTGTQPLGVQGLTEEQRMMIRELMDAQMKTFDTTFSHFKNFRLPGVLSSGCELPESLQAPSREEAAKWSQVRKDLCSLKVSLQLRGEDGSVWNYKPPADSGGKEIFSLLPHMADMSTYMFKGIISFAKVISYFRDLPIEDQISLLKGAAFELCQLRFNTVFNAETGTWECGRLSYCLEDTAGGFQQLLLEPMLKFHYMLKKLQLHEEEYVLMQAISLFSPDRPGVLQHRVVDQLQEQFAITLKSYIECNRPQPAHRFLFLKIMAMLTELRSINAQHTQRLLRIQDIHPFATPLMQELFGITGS
Description: (§1) Two molecules that were readily available (Ryan Scientific: FKK999 & BAS451) were purchased and tested in vitro for PXR activation using a HepG2 reporter assay. […] […]. […] In general, reporter cell lines are efficient ways to screen for PXR ligands (72). In the LS180 intestinal cell line, the PXR activation assay involves a transient transfection system using a specific PXR plasmid and reporter plasmid (CVmax % 11.2+2; CVmid % 10.8+0.1.4; Signal Window 6.2+1.1; Z′ factor 0.51+0.005).

[2] = system: PXR target genes (CYP3A4, MDR1)
RXR = RXR ligand displacement (radiolabeled 9-cis-retinoic acid); assay type: binding; details: displacement of radiolabeled 9-cis-retinoic acid
Experimental: (§2) FIG. 6A-6E. Activation and inhibition studies with different FKK compounds. (A) PXR activation, LS180 cells (upper), and PXR inhibition, LS180 cells, co-incubation with RIF (lower). (B) AhR activation, AZ-AHR cells (upper), and AhR inhibition, AZ-AHR cells, co-incubation with TCDD (lower). (C) GR activation, AZ-GR cells (upper), and VDR activation, IZ-VDRE cells (lower). (D) TR activation, PZ-GR cells (upper), and AR activation, AIZ-AR cells (lower). (E) Displacement of radiolabeled 9-cis-retinoic acid (RA) by FKK compounds.
(§3) All the synthesized compounds and intermediates were tested for their potential to activate PXR and/or AhR via luciferase assays. The PXR activation assays were performed by co-transfecting full-length expressing human PXR plasmid (91) and p3A4 luciferase reporter (92) in LS180 or Caco-2 cells. AhR activation conducted using stably co-transfected HepG2 reporter cells as previously described (93). […] With the exception of FKK6, there was no significant inhibition of TCDD-induced AhR activation. […] Independent verification of AhR activity of randomly selected compounds—FKK 5, 6 and 9—was performed in a separate laboratory (GHP). Nuclear receptor selectivity was assessed for FKK compounds for GR, ADR, TR and AR using cell-based luciferase assays previously described (93-102). […]

AhR target gene (CYP1A1) = assay type: cell-based, human
Description: (§4) FIG. 2A-2F. […] Histogram, mean±SD.
FIG. 7A-7B. Effects of FKK compounds on CYP3A4, MDR1 and CYP1A1 gene expression in LS180 cells. (A) mRNA expression. (B) mRNA expression in wt-PXR transfected cells.

[3] = system: AhR target genes (CYP1A1 and CYP1A2); assay type: cell-based, human
Description: as §4

[4] = system: AhR target genes (CYP1A1 and CYP1A2); assay: AhR target gene mRNA expression in HepaRG cells (control, AhR-KO)
AhR [5] = biological target: T2, AhR (Homo sapiens, UniProt P35869); assay: AhR activation, AZ-AHR (stably co-transfected HepG2) reporter cells; assay type: cell-based; design: endogenous in cells; host or cells: AZ-AHR (HepG2); details: to a much lesser extent than FKK 2 and 9; FIG. 6B
T2 sequence (P35869 11-848): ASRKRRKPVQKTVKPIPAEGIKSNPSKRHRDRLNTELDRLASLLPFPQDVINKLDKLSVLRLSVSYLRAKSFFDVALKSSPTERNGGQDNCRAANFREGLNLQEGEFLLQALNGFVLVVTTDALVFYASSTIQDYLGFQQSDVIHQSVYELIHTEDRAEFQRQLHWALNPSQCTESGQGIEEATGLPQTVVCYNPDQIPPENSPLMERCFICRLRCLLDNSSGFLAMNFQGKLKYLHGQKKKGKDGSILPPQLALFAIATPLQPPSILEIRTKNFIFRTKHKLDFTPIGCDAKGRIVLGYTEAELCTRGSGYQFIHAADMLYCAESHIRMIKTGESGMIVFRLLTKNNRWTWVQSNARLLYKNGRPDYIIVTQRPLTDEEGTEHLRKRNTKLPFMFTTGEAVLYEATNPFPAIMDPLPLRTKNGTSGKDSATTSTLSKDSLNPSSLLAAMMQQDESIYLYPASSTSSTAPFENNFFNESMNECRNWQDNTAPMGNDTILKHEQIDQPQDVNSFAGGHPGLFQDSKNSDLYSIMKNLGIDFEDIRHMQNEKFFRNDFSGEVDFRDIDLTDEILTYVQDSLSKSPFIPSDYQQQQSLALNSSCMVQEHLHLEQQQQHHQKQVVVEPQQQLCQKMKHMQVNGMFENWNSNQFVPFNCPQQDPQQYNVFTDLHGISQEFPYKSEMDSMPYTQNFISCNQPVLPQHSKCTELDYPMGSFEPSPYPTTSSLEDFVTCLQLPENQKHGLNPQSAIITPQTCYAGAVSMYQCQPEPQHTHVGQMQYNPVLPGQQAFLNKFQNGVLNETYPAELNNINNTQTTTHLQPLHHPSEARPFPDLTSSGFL
Experimental: as §2
(§5) All the synthesized compounds and intermediates were tested for their potential to activate PXR and/or AhR via luciferase assays. The PXR activation assays were performed by co-transfecting full-length expressing human PXR plasmid (91) and p3A4 luciferase reporter (92) in LS180 or Caco-2 cells. AhR activation conducted using stably co-transfected HepG2 reporter cells as previously described (93). […] With the exception of FKK6, there was no significant inhibition of TCDD-induced AhR activation. […] Independent verification of AhR activity of randomly selected compounds—FKK 5, 6 and 9—was performed in a separate laboratory (GHP). Nuclear receptor selectivity was assessed for FKK compounds for GR, ADR, TR and AR using cell-based luciferase assays previously described (93-102). There was no observed biologically significant (>2-fold) induction of nuclear receptor activity (FIG. 6C). RXR ligand displacement is only significant for FKK1 and FKK8 (FIG. 6D).

468 kinases = assay: Kinase profiling, scanMAX (KINOMEscan) panel; assay type: binding; details: 10 μM; for Number of Hits: 403 non-mutant kinases
Experimental: The kinase inhibition assays were conducted by DiscoverX on a platform assay by Ambit BioSciences as described previously (112, 113). FKK6 was screened at a single concentration of 10 μM in duplicate. The scanMAXSM assay panel measures 468 kinases (WorldWideWeb.discoverx.com/services/drug-discovery-development-services/kinase-profiling/kinomescan/scanmax). The assays measures a compound's ability to inhibit binding of a canonical ligand substrate, with 0% activity of control corresponding to full inhibition and 100% activity of control to no inhibition. […] Three different activity cut-offs were analyzed—S(35) or % activity of control <35; S(10) or % activity of control <10; and S(1) or % activity of control <1. To illustrate effect or lack of effect, an image of the entire family of kinases tested were grouped by families and S(35). The TREEspot Kinase dendrogram image was generated using TREEspot™ Software Tool and reprinted with permission from KINOMEscan®, a division of DiscoveRx Corporation, © DISCOVERX CORPORATION 2010.

AhR [6] = biological target: T2, AhR; assay: AhR inhibition, AZ-AHR cells, co-incubation with TCDD; assay type: cell-based; design: endogenous in cells; host or cells: AZ-AHR (HepG2); details: read-out: inhibition of maximal induction by TCDD
Experimental: as §2, §3

[7] = system: PXR occupancy of the target promoters; assay: Chromatin immunoprecipitation assay (ChIP); assay type: cell-based; details: semi-quantitative PCR
Experimental: These assays were performed as previously published (27).

PXR [8] = biological target: T1, PXR; assay: Isothermic titration calorimetry (ITC); assay type: binding; details: FIG. 11
[9] = system: PXR target genes (CYP3A4, MDR1); details: human, 24 h, 10 μM
[10] = system: PXR target genes (CYP3A4, MDR1); assay: PXR target gene mRNA expression in plated human hepatocytes; details: 10 μM, 24 h, FIG. 2
PXR [11] = biological target: T1, PXR; assay: PXR activation (transactivation) luciferase assay in LS180 cells; assay type: cell-based; design: co-transfecting full-length expressing human PXR plasmid (91) and p3A4 luciferase reporter (92) in LS180 or Caco-2 cells; expressed in transfected cells; host or cells: LS180
Experimental: as §2, §1, §5

AhR [12] = biological target: T2, AhR; assay: AhR activation by IPA (assay not described); assay type: cell-based
Description: IPA/Indoles can have weak (˜2 fold) but important effects on the activation of other nuclear receptors (e.g., CAR, LXR) (33). […] Some receptors, specifically CAR and LXR, can act to induce liver steatosis (79, 83-86) and hepatocarcinogenesis (CAR) (80, 84, 87-89) and thus, avoiding excessive activation of these nuclear receptors in the context of PXR activation would be important. […] CDK5 (along with CDK2) are important kinases that phosphorylate and inhibit PXR activation (90).

Work on `Cc1[nH]c2ccccc2c1C(c1ccccc1)c1c(C)[nH]c2ccccc12` [BAS451] yielded an EC50 (PXR [1]) of over 50 µM.
In the case of `O=S(=O)(c1ccccc1)n1c(C(O)c2ccncc2)cc2ccccc21` (stereo not shown) [FKK1], the “CYP3A4 mRNA expression” value [2] is reported as “expression is reduced”, the RXR ligand displacement (RXR) is reported as “significant” and the “CYP1A1 mRNA expression” value (AhR target gene (CYP1A1)) is reported as “attenuated effects”. For the same compound, the “CYP1A1 mRNA induction” value (AhR target gene (CYP1A1)) was “attenuated effects”.
In the case of `OC(c1ccncc1)(c1cc2ccccc2[nH]1)c1cc2ccccc2[nH]1` [FKK2], the “induction of CYP1A1 and CYP1A2” value ([3]; human, hepatocytes) is reported as over 100 fold and the “induction of CYP1A1 and CYP1A2” value [4] is reported as “completely diminished”.
For `CC#CC(O)(c1ccncc1)c1cc2ccccc2n1S(=O)(=O)c1ccccc1` (stereo not shown) [FKK3], the AhR activation profile (AhR [5]) was “variable degrees of dose-dependent AhR activation”.
`CC#CC(O)(c1ccncc1)c1cc2ccccc2n1COCC` (stereo not shown) [FKK4] was tested, and the AhR activation profile (AhR [5]) was “variable degrees of dose-dependent AhR activation”.
For `C#CCC(O)(c1ccncc1)c1cc2ccccc2n1S(=O)(=O)c1ccccc1` (stereo not shown) [FKK6], the “S(1-35)-scores” value (468 kinases; duplicate) was 0, the “inhibitory effects on kinases” value (468 kinases; 468 kinases) was “lack of inhibitory effects of FKK6 on any kinase” and the “Number of Hits” value (468 kinases; S(1), % activity of control <1) was 0. For the same compound, the “Number of Hits” value (468 kinases; S(10), % activity of control <10) was 0, the “Number of Hits” value (468 kinases; S(35), % activity of control <35) was 0 and the inhibition at 10 µM (AhR [6]) was about 25%. The “PXR occupancy of the target promoters” value [7] was “efficiently induces PXR occupancy”, the “binding to human PXR” value (PXR [8]) was “efficient and direct binding” and the CYP3A4 induction [9] was about 10 fold. For the same compound, the MDR1 induction [9] was over 6 fold, the CYP3A4 induction [10] was about 2.6 fold and the MDR1 induction [10] was about 1.5 fold. For the same compound, the EC50 (PXR [11]) was 0.88 µM and the Emax (PXR [11]; read-out: Emax/Emax[rifampicin, positive control]) was 117%.
`O=S(=O)(c1ccccc1)n1c(C(O)(Cc2cc3ccccc3[nH]2)c2ccncc2)cc2ccccc21` (stereo not shown) [FKK7] was tested, and the AhR activation profile (AhR [5]) was “variable degrees of dose-dependent AhR activation”.
With `CCOCn1c(C(O)(Cc2cc3ccccc3[nH]2)c2ccncc2)cc2ccccc21` (stereo not shown) [FKK9] the “induction of CYP1A1 and CYP1A2” value ([3]; human, hepatocytes) was over 100 fold and the “induction of CYP1A1 and CYP1A2” value [4] was “completely diminished”.
With `OC(Cc1cc2ccccc2[nH]1)(c1ccncc1)c1cc2ccccc2[nH]1` (stereo not shown) [FKK10] the AhR activation profile (AhR [5]) was “variable degrees of dose-dependent AhR activation”.
With `Cc1[nH]c2ccccc2c1C(c1c(C)[nH]c2ccccc12)c1c(C)[nH]c2ccccc12` [FKK999, reference compound] the EC50 (PXR [1]; HepG2 reporter assay, read-out: EC50, PXR activation) was 5 µM, the AhR activation profile (AhR [5]) was “variable degrees of dose-dependent AhR activation” and the “CYP3A4 mRNA expression” value [2] was “expression is reduced”. The “CYP3A4 mRNA induction” value ([2]; human) was over 2 fold, the “CYP1A1 mRNA expression” value (AhR target gene (CYP1A1)) was “attenuated effects” and the “CYP1A1 mRNA induction” value (AhR target gene (CYP1A1)) was “attenuated effects”.
With `O=C(O)CCc1c[nH]c2ccccc12` [IPA, indole-3-propionic acid, reference compound] the AhR activation (AhR [12]) was “does not activate AhR”.
In the case of `Clc1cc2c(cc1Cl)Oc1cc(Cl)c(Cl)cc1O2` [TCDD], the “induction of CYP1A1 and CYP1A2” value ([3]; primary human hepatocytes, FKK2 and FKK9 in 1 of 4 hepatocytes) is reported as over 5000 fold, the “CYP1A1 mRNA induction” value (AhR target gene (CYP1A1); PXR transfected LS180 cells, FIG. 7B) is reported as 1299.1 fold and the “CYP1A1 mRNA expression” value (AhR target gene (CYP1A1); un-transfected LS180 cells, FIG. 7A) is reported as 2347 fold and < 3000 fold.
